Measured values taken from ChEMBL document CHEMBL1177693, “Antimalarials from nature” (Bioorg Med Chem, 2009).
≈ marks a conversion by molar mass, not a printed value. One block for each molecule: values may come before it.

Legend:
Plasmodium falciparum [1] = test: Antimalarial activity against Plasmodium falciparum W2; type: functional, organism-based
Plasmodium falciparum [2] = test: Antimalarial activity against Plasmodium falciparum D6; type: functional, organism-based
Plasmodium berghei = test: Antimalarial activity against Plasmodium berghei infected in mice (Mus musculus) assessed as increase in survival of mice (Mus musculus) at 100 uM/kg; type: functional
Plasmodium falciparum [3] = test: Antimalarial activity against multidrug-resistant Plasmodium falciparum K1; type: functional, organism-based
Plasmodium falciparum [4] = test: Antimalarial activity against chloroquine-resistant Plasmodium falciparum; type: functional, organism-based
Plasmodium falciparum [5] = test: Antimalarial activity against chloroquine-sensitive Plasmodium falciparum D6; type: functional, organism-based
Plasmodium falciparum [6] = test: Antimalarial activity against chloroquine-sensitive Plasmodium falciparum D10; type: functional, organism-based
Plasmodium falciparum [7] = test: Antimalarial activity against chloroquine-susceptible Plasmodium falciparum D6; type: functional, organism-based
Plasmodium falciparum [8] = test: Antimalarial activity against chloroquine-resistant Plasmodium falciparum W2; type: functional, organism-based
Plasmodium falciparum [9] = test: Antimalarial activity against Plasmodium falciparum FCA 20; type: functional, organism-based
Plasmodium falciparum [10] = test: Antimalarial activity against Plasmodium falciparum FCB1-R; type: functional, organism-based
Plasmodium falciparum [11] = test: Antimalarial activity against Plasmodium falciparum 3D7; type: functional, organism-based
[12] = target: T1, Enoyl-acyl-carrier protein reductase (Plasmodium falciparum, UniProt Q965D5); test: Inhibition of Plasmodium falciparum Fabl
T1 sequence (Q965D5 whole entry): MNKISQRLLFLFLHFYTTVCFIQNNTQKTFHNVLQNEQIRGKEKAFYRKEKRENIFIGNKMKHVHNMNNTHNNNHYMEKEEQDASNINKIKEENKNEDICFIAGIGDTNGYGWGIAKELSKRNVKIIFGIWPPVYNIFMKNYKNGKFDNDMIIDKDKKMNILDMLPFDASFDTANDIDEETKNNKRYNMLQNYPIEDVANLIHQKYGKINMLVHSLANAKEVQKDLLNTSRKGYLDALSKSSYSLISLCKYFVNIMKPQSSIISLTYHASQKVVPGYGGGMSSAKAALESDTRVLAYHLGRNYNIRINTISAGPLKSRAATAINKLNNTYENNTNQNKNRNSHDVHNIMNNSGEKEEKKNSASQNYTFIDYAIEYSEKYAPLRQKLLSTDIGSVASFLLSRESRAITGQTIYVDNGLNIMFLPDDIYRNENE

[13] = Inhibition of Plasmodium falciparum FabG
Plasmodium vivax = test: Antimalarial activity against Plasmodium vivax infected in human HepG2-A16 cells assessed as reduction of trophozoites level; type: functional; design: scale not given: the % may be the effect or the level left
Plasmodium falciparum [14] = test: Antimalarial activity against drug-susceptible Plasmodium falciparum NF54 infected in erythrocytes; type: functional, organism-based
Plasmodium falciparum [15] = test: Antimalarial activity against multidrug-resistant Plasmodium falciparum K1 infected in erythrocytes; type: functional, organism-based
Plasmodium falciparum [16] = test: Antimalarial activity against Plasmodium falciparum NF54; type: functional, organism-based
Plasmodium falciparum [17] = test: Antimalarial activity against Plasmodium falciparum K1; type: functional, organism-based
Plasmodium falciparum [18] = test: Antimalarial activity against Plasmodium falciparum FCR3F86; type: functional, organism-based
Plasmodium falciparum [19] = test: Antimalarial activity against chloroquine-resistant Plasmodium falciparum FCB1; type: functional, organism-based; details: FcB1/Columbia
Plasmodium falciparum [20] = test: Antimalarial activity against Plasmodium falciparum T9-96; type: functional, organism-based

IC50 (Plasmodium falciparum [1]): 4.2 mg/L
IC50 (Plasmodium falciparum [2]): 3.5 mg/L
SMILES: COc1cc(/C=C/C(=O)CC(=O)/C=C/c2ccc(O)c(OC)c2)ccc1O [CURCUMIN]

SMILES: C[C@@H]1CC[C@H]2[C@@H](C)C(=O)O[C@@H]3O[C@@]4(C)CC[C@@H]1[C@]32OO4 [ARTEMISININ]
Survival (Plasmodium berghei): 2 days

SMILES: COC(=O)[C@]12OC[C@]34[C@H]([C@@H](O)[C@@H]1O)[C@@]1(C)C5=CC(=O)OC5=C[C@@H](C)[C@@H]1C[C@H]3OC(=O)[C@H](OC(C)=O)[C@@H]24 [NEOSERGEOLIDE]
IC50 (Plasmodium falciparum [3]): 0.002 µM

SMILES: COc1ccc([C@@H]2Oc3cc(O)cc(O)c3C(=O)[C@H]2[C@H]2C(=O)c3c(O)cc(O)cc3O[C@H]2c2ccc(O)cc2)cc1 [SIKOKIANIN B]
IC50 (Plasmodium falciparum [4]): 0.54 mg/L (≈ 0.97 µM)

SMILES: CN1C2=CC(O)=c3ccccc3=NC2c2ccccc21 (stereo unspecified) [CRYPTOHEPTINE]
IC50 (Plasmodium falciparum [3]): 0.8 µM

SMILES: COc1ccc(C[C@H]2NC[C@H](O)[C@H]2OC(C)=O)cc1 [ANISOMYCIN]
IC50 (Plasmodium falciparum [5]): 4.6 µM

IC50 (Plasmodium falciparum [6]): 12.3 µM
SMILES: COc1cc(O)cc2c1c(=O)c1ccccc1n2C [TEGERRARDIN A]

SMILES: CO[C@H]1C[C@@H]([C@@H](O)[C@@](C)(OC)[C@H](C)OC)O[C@]2(O[C@](C)([C@H]3CC[C@@H]([C@H]4CC[C@H]([C@H]5O[C@](C)(O)[C@H](C)[C@@H](O)[C@@H]5C)O4)O3)[C@H](OC)[C@H]2C)[C@H]1C
IC50 (Plasmodium falciparum [7]): 0.1 mg/L (≈ 0.145 µM)
IC50 (Plasmodium falciparum [8]): 0.1 mg/L (≈ 0.145 µM)

IC50 (Plasmodium falciparum [1]): 0.5 µM
IC50 (Plasmodium falciparum [9]): 0.5 µM
IC50 (Plasmodium falciparum [10]): 0.5 µM
SMILES: C=Cc1c[n+]2c(c(O)c1C[C@H]1c3[nH]c4ccccc4c3CCN1C)-c1[nH]c3c([C@H]4CCCN4C)c(O)ccc3c1CC2 [CHRYSOPENTAMINE]

SMILES: CCCCCCCc1cc(/C=C2\N=C(c3ccc[nH]3)C=C2OC)[nH]c1C [HEPTYL PRODIGIOSIN]
IC50 (Plasmodium falciparum [11]): 0.07 µM

IC50 [12]: 65.3 µM
IC50 [13]: 20 mg/L (≈ 65.3 µM)
SMILES: C=C1C(=O)OC[C@H]1[C@@H](/C=C(\C)CC(=O)C=C(C)C)OC(C)=O

SMILES: CC(CCC1(O)C[C@@H]2C[C@H]3[C@@H]4CCC5=CC(=O)CC[C@]5(C)[C@H]4CC[C@]3(C)[C@H]2[C@@H]1C)CO[C@@H]1O[C@H](CO)[C@@H](O)[C@H](O)[C@H]1O (stereo partly specified)
Activity (Plasmodium vivax): 39%

SMILES: O[C@@H]1CCCN2CC[C@@H]1O[C@@]13CC[C@@H](OC[C@]45CN6CCCC/C=C\CC[C@](O)(C=C(c7nccc8c7[nH]c7ccccc78)[C@@H]4CC6)[C@H]25)[C@@H](O)CCN1[C@@H]1[C@]2(CN4CCCC/C=C\CC[C@]1(O)C=C(c1nccc5c1[nH]c1ccccc15)[C@@H]2CC4)C3 [NEO-KAULUAMINE]
Survival (Plasmodium berghei): 9 days

SMILES: CC[C@@]12CCCN3CC[C@]4(c5ccc(OC)c(O)c5N(C(C)=O)[C@@H]4CC1)[C@H]32 [ASPIDOCARPINE]
IC50 (Plasmodium falciparum [3]): 0.019 µM

SMILES: COc1cc(/C=C2/Cc3c(OC(C)=O)cc(OC(C)=O)cc3O2)cc(OC)c1OC(C)=O
IC50 (Plasmodium falciparum [14]): 0.18 µM
IC50 (Plasmodium falciparum [15]): 0.007 µM

IC50 (Plasmodium falciparum [16]): 0.0017 mg/L (≈ 0.00204 µM)
IC50 (Plasmodium falciparum [17]): 0.0015 mg/L (≈ 0.0018 µM)
SMILES: COc1c2c(c(O)c3c4c(c(C)cc13)[C@@H]1O[C@@]3(C(OC)OC)O[C@@H]1[C@@](O[C@H]1C[C@@H](O)[C@@](O)(C(C)=O)[C@H](C)O1)(O4)[C@@]31CO1)C(=O)[C@@H](O)C[C@@H]2O[C@H]1C[C@@](C)(O)[C@H](O)[C@H](C)O1 [TRIOXACARCIN D]

SMILES: Cc1cc(=O)c(O)cc2c1C[C@H]1CC(C)(C)/C=C/C[C@@]3(C)Oc4cc(O)c(=O)cc(C)c4C[C@@H]3C[C@H](O)[C@]1(C)O2 [PYCNIDIONE]
IC50 (Plasmodium falciparum [1]): 0.37 µM
IC50 (Plasmodium falciparum [2]): 0.75 µM
IC50 (Plasmodium falciparum [18]): 0.28 µM

SMILES: O=C(O[C@H]1Cc2c(O)cc(O)cc2O[C@@H]1c1ccc(O)c(O)c1)c1cc(O)c(O)c(O)c1 [CATECHIN GALLATE]
IC50 (Plasmodium falciparum [19]): 1 µM

SMILES: C/C=C/C/C=C/CCC(=O)[C@H]1O[C@H]1C(N)=O [CERULENIN]
IC50 (Plasmodium falciparum [5]): 10.1 µM

IC50 [12]: 588 µM
SMILES: OCC1=C[C@@H]2OCC[C@@H]2[C@@H]1CO

SMILES: O=C(O)[C@@H]1[C@H](C(=O)O)[C@H]2CC[C@@H]1O2 [ENDOTHALL]
IC50 (Plasmodium falciparum [5]): 7.8 µM

SMILES: CO[C@@H]1C=C[C@@]23c4cc5c(cc4CN(C[C@@H]2O)[C@H]3C1)OCO5 [(+)-HAEMANTHAMINE]
IC50 (Plasmodium falciparum [20]): 0.7 mg/L (≈ 2.32 µM)
